Source: patent US8841291B2, “Selective hydroxamic acid based MMP-12 and MMP-13 inhibitors” (Novartis AG, priority 2008, dated 2014)

Experiments:
Gelatinase (MMP-2) = biological target: T1, Gelatinase (MMP-2) (Homo sapiens, UniProt P08253); experiment: Gelatinase (MMP-2) inhibitory activity, fluorogenic peptide substrate assay; type: biochemical; conditions: substrate 5 μM, 60 min preincubation, 20-25° C.; read-out: MMP2 IC50
T1 sequence (P08253 110-660): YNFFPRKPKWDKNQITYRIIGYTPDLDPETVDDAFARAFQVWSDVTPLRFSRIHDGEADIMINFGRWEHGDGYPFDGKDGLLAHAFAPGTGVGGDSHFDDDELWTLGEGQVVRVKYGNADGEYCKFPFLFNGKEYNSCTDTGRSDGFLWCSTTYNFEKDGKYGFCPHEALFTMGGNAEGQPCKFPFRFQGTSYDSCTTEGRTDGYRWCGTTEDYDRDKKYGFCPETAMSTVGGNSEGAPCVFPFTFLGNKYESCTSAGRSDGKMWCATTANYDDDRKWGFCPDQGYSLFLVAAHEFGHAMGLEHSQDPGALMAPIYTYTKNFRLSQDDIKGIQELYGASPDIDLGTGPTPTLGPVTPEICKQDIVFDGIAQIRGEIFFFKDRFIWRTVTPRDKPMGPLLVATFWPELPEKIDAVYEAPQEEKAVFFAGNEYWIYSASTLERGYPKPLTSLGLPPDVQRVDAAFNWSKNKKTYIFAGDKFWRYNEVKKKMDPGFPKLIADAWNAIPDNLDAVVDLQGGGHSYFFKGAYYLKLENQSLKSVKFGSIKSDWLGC
Method: (§1) Stock solutions of inhibitors (0.03 mM-3 mM) are also prepared in DMSO. The inhibitors are diluted into the assay solutions, and the controls use an equal volume of DMSO so that the final DMSO concentration from the inhibitor and substrate dilutions in all assays is 1.0%. Assays are performed in an assay buffer (100 mM sodium chloride, 10 μM ZnCl. Sub 2, 10 mM CaCl2, 100 mM Tris-Cl pH7.5, 0.05% Brij-35), containing 1.0% DMSO from the substrate and inhibitor additions. The substrate concentration used in the assays is 5 μM. The assays are carried out at 20-25° C. […] The reaction mixtures are added in duplicate into appropriate wells of a 384-well assay plate. The reaction mixtures are preincubated with the inhibitors for 60 minutes The reactions are started by the addition of MMP substrate, and the fluorescence intensity changes are measured after 60 minutes The apparent enzyme activity in the presence of an inhibitor is then compared with that in the absence of any inhibitor to determine the inhibition effect of the inhibitor.

Collagenase-3 (MMP-13) = Collagenase-3 (MMP-13) (Homo sapiens, UniProt P45452); experiment: Collagenase-3 (MMP-13) inhibitory activity, fluorogenic peptide substrate assay; type: biochemical; conditions: recombinant pro-collagenase-3 activated with 1 mM APMA; read-out: MMP13 IC50
Method: as §1
Collagenase-3 (MMP-13) inhibitory activity is determined as described above. Recombinant pro-collagenase-3 is activated with 1 mM APMA, and stored in the assay buffer after extensive dialysis in the assay buffer.

O=C(NO)[C@H]1CCCN1S(=O)(=O)c1ccc2ccccc2c1 (stereo in doubt) [Example 52, 1-(Naphthalene-2-sulfonyl)-pyrrolidine-2-carboxylic acid hydroxyamide]
IC50 (Gelatinase (MMP-2)): 350 nM | IC50 (Collagenase-3 (MMP-13)): 293 nM

CC(C)CCN([C@@H](C(=O)NO)C(C)C)S(=O)(=O)c1ccc2ccccc2c1O [Example 1, (R)—N-Hydroxy-2-[(1-hydroxy-naphthalene-2-sulfonyl)-(3-methyl-butyl)-amino]-3-methyl-butyramide]
IC50 (Gelatinase (MMP-2)): > 3000 nM | IC50 (Collagenase-3 (MMP-13)): 672 nM

C=CC[C@@H](NS(=O)(=O)c1ccc2ccccc2c1)C(=O)NO [Example 3, (R)-2-(Naphthalene-2-sulfonylamino)-pent-4-enoic acid hydroxyamide]
IC50 (Gelatinase (MMP-2)): 22.2 nM | IC50 (Collagenase-3 (MMP-13)): 35.6 nM

C=CCCN([C@H](CC=C)C(=O)NO)S(=O)(=O)c1ccc2ccccc2c1 [Example 4, (R)-2-[But-3-enyl-(naphthalene-2-sulfonyl)-amino]-pent-4-enoic acid hydroxyamide]
IC50 (Gelatinase (MMP-2)): 50.7 nM | IC50 (Collagenase-3 (MMP-13)): 0.7 nM

CC(C)C[C@@H](NS(=O)(=O)c1ccc2ccccc2c1)C(=O)NO [Example 5, 4-Methyl-2-(naphthalene-2-sulfonylamino)-pentanoic acid hydroxyamide]
IC50 (Gelatinase (MMP-2)): 57.5 nM | IC50 (Collagenase-3 (MMP-13)): 40.5 nM

C#CC[C@H](C(=O)NO)N(CC=C)S(=O)(=O)c1ccc2ccccc2c1 [Example 8, (R)-2-[Allyl-(naphthalene-2-sulfonyl)-amino]-pent-4-ynoic acid hydroxyamide]
IC50 (Gelatinase (MMP-2)): 125 nM | IC50 (Collagenase-3 (MMP-13)): 3.5 nM

O=C(NO)[C@H]1CCCCN1S(=O)(=O)c1ccc2ccccc2c1 [Example 9, (R)-1-(Naphthalene-2-sulfonyl)-piperidine-2-carboxylic acid hydroxyamide]
IC50 (Gelatinase (MMP-2)): 48.8 nM | IC50 (Collagenase-3 (MMP-13)): 4.9 nM

O=C(NO)C(NS(=O)(=O)c1ccc2ccccc2c1)C1CCOCC1 (centres unmarked) [Example 11, N-Hydroxy-2-(naphthalene-2-sulfonylamino)-2-(tetrahydro-pyran-4-yl)-acetamide]
IC50 (Gelatinase (MMP-2)): 92.7 nM | IC50 (Collagenase-3 (MMP-13)): 50.9 nM

CC(C)(NS(=O)(=O)c1ccc2ccccc2c1)C(=O)NO [Example 12, N-Hydroxy-2-methyl-2-(naphthalene-2-sulfonylamino)-propionamide]
IC50 (Gelatinase (MMP-2)): 793 nM | IC50 (Collagenase-3 (MMP-13)): 761 nM

CS(=O)(=O)CCC(NS(=O)(=O)c1ccc2ccccc2c1)C(=O)NO (centres unmarked) [Example 18, N-Hydroxy-4-methanesulfonyl-2-(naphthalene-2-sulfonylamino)-butyramide]
IC50 (Gelatinase (MMP-2)): 157 nM | IC50 (Collagenase-3 (MMP-13)): 153 nM

O=C(NO)C1(NS(=O)(=O)c2ccc3ccccc3c2)CCCCC1 [Example 19, 1-(Naphthalene-2-sulfonylamino)-cyclohexanecarboxylic acid hydroxyamide]
IC50 (Gelatinase (MMP-2)): 451 nM | IC50 (Collagenase-3 (MMP-13)): 727 nM

CSCC[C@H](C(=O)NO)N(CCC(C)C)S(=O)(=O)c1ccc2ccccc2c1 [Example 20, (R)—N-Hydroxy-2-[(3-methyl-butyl)-(naphthalene-2-sulfonyl)-amino]-4-methylsulfanyl-butyramide]
IC50 (Gelatinase (MMP-2)): 12.1 nM | IC50 (Collagenase-3 (MMP-13)): 0.3 nM

C=CCN([C@@H](C(=O)NO)C(C)C)S(=O)(=O)c1ccc2ccccc2c1 [Example 24, (R)-2-[Allyl-(naphthalene-2-sulfonyl)-amino]-N-hydroxy-3-methyl-butyramide]
IC50 (Gelatinase (MMP-2)): 90.4 nM | IC50 (Collagenase-3 (MMP-13)): 3.4 nM

CC(C)CCN([C@H](Cc1ccc(OCc2ccccc2)cc1)C(=O)NO)S(=O)(=O)c1ccc2ccccc2c1 [Example 25, (R)-3-(4-Benzyloxy-phenyl)-N-hydroxy-2-[(3-methyl-butyl)-(naphthalene-2-sulfonyl)-amino]-propionamide]
IC50 (Gelatinase (MMP-2)): 1960 nM | IC50 (Collagenase-3 (MMP-13)): 44.1 nM

O=C(NO)[C@H]1CC=CCN1S(=O)(=O)c1ccc2ccccc2c1 [Example 26, (R)-1-(Naphthalene-2-sulfonyl)-1,2,3,6-tetrahydro-pyridine-2-carboxylic acid hydroxyamide]
IC50 (Gelatinase (MMP-2)): 18.6 nM | IC50 (Collagenase-3 (MMP-13)): 1.7 nM

CCOc1ccc2ccc(S(=O)(=O)N(Cc3ccccc3)[C@@H](C(=O)NO)C(C)C)cc2c1 [Example 27, 2-[Benzyl-(7-ethoxy-naphthalene-2-sulfonyl)-amino]-N-hydroxy-3-methyl-butyramide]
IC50 (Gelatinase (MMP-2)): 4400 nM | IC50 (Collagenase-3 (MMP-13)): 535 nM

CC(C)[C@H](C(=O)NO)N(CCOc1ccccc1)S(=O)(=O)c1ccc2ccccc2c1 [Example 30, N-(2-phenoxyethyl)-N-(naphthalene-2-sulfonyl)-D-valine hydroxamic acid]
IC50 (Gelatinase (MMP-2)): 61.2 nM | IC50 (Collagenase-3 (MMP-13)): 2.1 nM

CC(C)[C@H](C(=O)NO)N(CCCc1ccccc1)S(=O)(=O)c1ccc2cc(N)ccc2c1 [Example 32, 2-[(6-Amino-naphthalene-2-sulfonyl)-(3-phenyl-propyl)-amino]-N-hydroxy-3-methyl-butyramide]
IC50 (Gelatinase (MMP-2)): 82.2 nM | IC50 (Collagenase-3 (MMP-13)): 1 nM

O=C(NO)[C@H]1CCCCCN1S(=O)(=O)c1ccc2ccccc2c1 [Example 33, (R)-1-(Naphthalene-2-sulfonyl)-azepane-2-carboxylic acid hydroxyamide]
IC50 (Gelatinase (MMP-2)): 74.5 nM | IC50 (Collagenase-3 (MMP-13)): 8.7 nM

CC(=O)Nc1ccc2cc(S(=O)(=O)N(CCCc3ccccc3)[C@@H](C(=O)NO)C(C)C)ccc2c1 [Example 34, 2-[(6-Acetylamino-naphthalene-2-sulfonyl)-(3-phenyl-propyl)-amino]-N-hydroxy-3-methyl-butyramide]
IC50 (Gelatinase (MMP-2)): 2900 nM | IC50 (Collagenase-3 (MMP-13)): 1310 nM

CC(C)[C@H](C(=O)NO)N(CCCc1ccccc1)S(=O)(=O)c1ccc2ccc(N)cc2c1 [Example 38, 2-[(7-Amino-naphthalene-2-sulfonyl)-(3-phenyl-propyl)-amino]-N-hydroxy-3-methyl-butyramide]
IC50 (Gelatinase (MMP-2)): > 300 nM | IC50 (Collagenase-3 (MMP-13)): 190 nM

O=C(NO)[C@H]1CC=C(c2ccccc2)CN1S(=O)(=O)c1ccc2ccccc2c1 [Example 39, (R)-1-(Naphthalene-2-sulfonyl)-5-phenyl-1,2,3,6-tetrahydro-pyridine-2-carboxylic acid hydroxyamide]
IC50 (Gelatinase (MMP-2)): 27.8 nM | IC50 (Collagenase-3 (MMP-13)): 1.4 nM

CC(C)[C@H](C(=O)NO)N(CCOc1ccc(F)cc1)S(=O)(=O)c1ccc2ccccc2c1 [Example 41, N-(2-(4-fluorophenoxy)ethyl)-N-(naphthalene-2-sulfonyl)-D-valine hydroxamic acid]
IC50 (Gelatinase (MMP-2)): 1130 nM | IC50 (Collagenase-3 (MMP-13)): 38.7 nM

Cc1ccc(Nc2ccc3cc(S(=O)(=O)N(Cc4ccccc4)[C@@H](C(=O)NO)C(C)C)ccc3c2)cc1 [Example 43, 2-[Benzyl-(6-p-tolylamino-naphthalene-2-sulfonyl)-amino]-N-hydroxy-3-methyl-butyramide]
IC50 (Gelatinase (MMP-2)): > 300 nM | IC50 (Collagenase-3 (MMP-13)): 118 nM

C=CC1=CCN(S(=O)(=O)c2ccc3ccccc3c2)[C@@H](C(=O)NO)C1 [Example 44, (R)-1-(Naphthalene-2-sulfonyl)-4-vinyl-1,2,3,6-tetrahydro-pyridine-2-carboxylic acid hydroxyamide]
IC50 (Gelatinase (MMP-2)): 30.1 nM | IC50 (Collagenase-3 (MMP-13)): 1.8 nM

COc1cccc(OCCN([C@@H](C(=O)NO)C(C)C)S(=O)(=O)c2ccc3ccccc3c2)c1 [Example 46, (R)—N-Hydroxy-2-[[2-(3-methoxy-phenoxy)-ethyl]-(naphthalene-2-sulfonyl)-amino]-3-methyl-butyramide]
IC50 (Gelatinase (MMP-2)): 655 nM | IC50 (Collagenase-3 (MMP-13)): 13.9 nM

O=C(NO)[C@H]1CCCCN1S(=O)(=O)c1cnc2ccccc2c1 [Example 50, (R)-1-(Quinoline-3-sulfonyl)-piperidine-2-carboxylic acid hydroxyamide]
IC50 (Gelatinase (MMP-2)): 975 nM | IC50 (Collagenase-3 (MMP-13)): 132 nM

CC(C)CCN([C@@H](C(=O)NO)C(C)C)S(=O)(=O)c1ccc2cc(N)ccc2c1 [Example 51, 2-[(6-Amino-naphthalene-2-sulfonyl)-(3-methyl-butyl)-amino]-N-hydroxy-3-methyl-butyramide]
IC50 (Gelatinase (MMP-2)): 1130 nM | IC50 (Collagenase-3 (MMP-13)): 90 nM

CC(=O)Nc1ccc2cc(S(=O)(=O)N(CCC(C)C)[C@@H](C(=O)NO)C(C)C)ccc2c1 [Example 55, 2-[(6-Acetylamino-naphthalene-2-sulfonyl)-(3-methyl-butyl)-amino]-N-hydroxy-3-methyl-butyramide]
IC50 (Gelatinase (MMP-2)): 81.3 nM | IC50 (Collagenase-3 (MMP-13)): 3.1 nM

CN1CCOc2cc(S(=O)(=O)N3CC=CC[C@@H]3C(=O)NO)ccc21 [Example 94, (R)-1-(4-Methyl-3,4-dihydro-2H-benzo[1,4]oxazine-7-sulfonyl)-1,2,3,6-tetrahydro-pyridine-2-carboxylic acid hydroxyamide]
IC50 (Collagenase-3 (MMP-13)): 37 nM

O=C(NO)[C@H]1CC=CCN1S(=O)(=O)c1ccc(N2CCOCC2)nc1 [Example 96, (R)-1-(6-Morpholin-4-yl-pyridine-3-sulfonyl)-1,2,3,6-tetrahydro-pyridine-2-carboxylic acid hydroxyamide]
IC50 (Collagenase-3 (MMP-13)): 326 nM

COc1ccc(S(=O)(=O)N2CC=CC[C@@H]2C(=O)NO)cc1OC [Example 97, (R)-1-(3,4-Dimethoxy-benzenesulfonyl)-1,2,3,6-tetrahydro-pyridine-2-carboxylic acid hydroxyamide]
IC50 (Collagenase-3 (MMP-13)): 10200 nM

(R)-1-(2,3,4a,8a-Tetrahydro-benzo[1,4]dioxine-6-sulfonyl)-1,2,3,6-tetrahydro-pyridine-2-carboxylic acid hydroxyamide [Example 95]
IC50 (Collagenase-3 (MMP-13)): 2.6 nM
